Data reported in patent publication US8188101B2 (AstraZeneca AB, priority 2008, dated 2012).

Tested on: Aβ42 release
Test: Aβ release in cells stably expressing APPswe, Meso Scale Discovery electrochemiluminescence assay
Assay type: cell-based, Human
Conditions: HEK or SH-SY5Y cells stably expressing APPswe, 4-6 hours incubation with test compound
Description: The level of activity of the compounds on Aβ release was tested using the following method:
Compounds were diluted in 100% DMSO and stored at […] prior to use. Human Embryonic Kidney (HEK) or Human Neuroblastoma (SH-SY5Y) cell lines stably expressing APP with the Swedish mutation (APPswe) were cultured using Dulbecco's Modified Eagles medium (DMEM) supplied with […] glucose, Na-pyruvate and GlutaMAX with 10% FBS, 100 U/ml penicillin-streptomycin (PEST) respectively, 1× non-essential amino acids (NEAA), […] Hepes, 100 μg/ml Zeocine. Cells at about 80% confluence were washed with PBS, detached from culture flasks using 1× Trypsin/EDTA diluted in PBS, re-suspended in cell media and plated in 384-well poly-d-lysine coated cell culture plates at about 10000-15000 cells/well, in 25 μL cell media. Optionally, cryo-preserved cells (frozen and stored at −140° C. in 90% cell media and 10% DMSO) were thawed, washed and plated as above. Next the cells were incubated for 15-24 h at 37° C. and 5% CO2, after which cell medium was changed. Fresh medium containing test compound diluted ×200 from prepared compound plate was added to the cells before further incubation for 4-6 hours at 37° C. and 5% CO2. After incubation with test compound the amount of Aβ peptides, including Aβ42, Aβ40, Aβ39, Aβ38 and Aβ37, secreted to the cell medium was analyzed using the electrochemiluminescence assay technology from Meso Scale Discovery Technology, in combination with specific antibodies raised against the different Aβ peptides. Potential cytotoxic effects of the compounds were usually assayed by measuring the ATP content (ViaLight) from cell lysate.

Point of comparison: Cc1nccn1-c1ccc(Nc2nc3c(c(C(C)c4ccccc4)n2)CN(C)CC3)cc1 (single isomer, unassigned) [Example 70, 6-Methyl-N-(4-(2-methyl-1H-imidazol-1-yl)phenyl)-4-(1-phenylethyl)-5,6,7,8-tetrahydropyrido[4,3-d]pyrimidin-2-amine], pIC50 6.2. Against it:
- Cc1nccn1-c1ccc(Nc2nc3c(c(C(C)c4ccccc4)n2)CN(C)CC3)cc1 (single isomer, unassigned) [Example 71, 6-Methyl-N-(4-(2-methyl-1H-imidazol-1-yl)phenyl)-4-(1-phenylethyl)-5,6,7,8-tetrahydropyrido[4,3-d]pyrimidin-2-amine] — higher, 6.6

Same assay, conditions: Homo sapiens, SH-SY5Y, HEK or SH-SY5Y cells stably expressing APPswe, 4-6 hours incubation with test compound

Point of comparison: COCC(=O)N1CCc2nc(Nc3ccc(-c4cnco4)cc3)nc(N(CCO)c3ccccc3)c2C1 [Example 18, 1-(4-((2-Hydroxyethyl)(phenyl)amino)-2-(4-(oxazol-5-yl)phenylamino)-7,8-dihydropyrido[4,3-d]pyrimidin-6(5H)-yl)-2-methoxyethanone], IC50 2510 nM. Against it:
- CCCN1CCc2nc(Nc3ccc(-c4cnn(C)c4)cc3)nc(N(CCO)c3ccccc3)c2C1 [Example 39, 2-((2-(4-(1-Methyl-1H-pyrazol-4-yl)phenylamino)-6-propyl-5,6,7,8-tetrahydropyrido[4,3-d]pyrimidin-4-yl)(phenyl)amino)ethanol] — 16-fold lower, 158 nM
- Cc1nccn1-c1ccc(Nc2nc(CCC3CCCCC3)c3c(n2)CCN(C)C3)cc1 [Example 54, 4-(2-Cyclohexylethyl)-6-methyl-N-(4-(2-methyl-1H-imidazol-1-yl)phenyl)-5,6,7,8-tetrahydropyrido[4,3-d]pyrimidin-2-amine] — 7.9-fold lower, 316 nM
- COc1cccc(Cc2nc(Nc3ccc(-n4cnc(C)c4)c(OC)c3)nc3c2CN(C)CC3)c1 [Example 95, N-(3-Methoxy-4-(4-methyl-1H-imidazol-1-yl)phenyl)-4-(3-methoxybenzyl)-6-methyl-5,6,7,8-tetrahydropyrido[4,3-d]pyrimidin-2-amine] — 63-fold lower, 39.8 nM
- O=C(C1CC1)N1CCc2nc(Nc3ccc(-c4cnco4)cc3)nc(N(CCO)c3ccccc3)c2C1 [Example 16, Cyclopropyl(4-((2-hydroxyethyl)(phenyl)amino)-2-(4-(oxazol-5-yl)phenylamino)-7,8-dihydropyrido[4,3-d]pyrimidin-6(5H)-yl)methanone] — 4-fold lower, 631 nM
- CCN(CC1CCCO1)c1nc(Nc2ccc(-n3ccnc3C)cc2)nc2c1CN(CCO)CC2 (centres unmarked) [Example 77, 2-(4-(Ethyl((tetrahydrofuran-2-yl)methyl)amino)-2-(4-(2-methyl-1H-imidazol-1-yl)phenylamino)-7,8-dihydropyrido[4,3-d]pyrimidin-6(5H)-yl)ethanol] — 4-fold lower, 631 nM
- c1ccc(CNc2nc(Nc3ccc(-c4cnco4)cc3)nc3c2CNCC3)cc1 [Example 6, N4-Benzyl-N2-(4-(oxazol-5-yl)phenyl)-5,6,7,8-tetrahydropyrido[4,3-d]pyrimidine-2,4-diamine] — 2-fold lower, 1260 nM
- CCOC(=O)N1CCc2nc(Nc3ccc(-c4cnco4)cc3)nc(N(CCO)c3ccccc3)c2C1 [Example 24, Ethyl 4-((2-hydroxyethyl)(phenyl)amino)-2-(4-(oxazol-5-yl)phenylamino)-7,8-dihydropyrido[4,3-d]pyrimidine-6(5H)-carboxylate] — 10-fold lower, 251 nM
- Cc1nccn1-c1ccc(Nc2nc3c(c(N(CCO)Cc4ccccc4)n2)CN(C)CC3)cc1 [Example 76, 2-(Benzyl(6-methyl-2-(4-(2-methyl-1H-imidazol-1-yl)phenylamino)-5,6,7,8-tetrahydropyrido[4,3-d]pyrimidin-4-yl)amino)ethanol] — 5-fold lower, 501 nM
- COc1cc(Nc2nc3c(c(COC4CCCC4)n2)COCC3)ccc1-n1cnc(C)c1 [Example 109, 4-(Cyclopentyloxymethyl)-N-(3-methoxy-4-(4-methyl-1H-imidazol-1-yl)phenyl)-7,8-dihydro-5H-pyrano[4,3-d]pyrimidin-2-amine] — 130-fold lower, 20 nM
- c1ccc(Nc2nc(Nc3ccc(-c4cnco4)cc3)nc3c2CNCC3)cc1 [Example 3, N2-(4-(Oxazol-5-yl)phenyl)-N4-phenyl-5,6,7,8-tetrahydropyrido[4,3-d]pyrimidine-2,4-diamine] — 2.5-fold lower, 1000 nM
- OCCN1CCc2nc(Nc3ccc(-c4cnco4)cc3)nc(NC[C@H]3CCCO3)c2C1 [Example 80, (R)-2-(2-(4-(Oxazol-5-yl)phenylamino)-4-((tetrahydrofuran-2-yl)methylamino)-7,8-dihydropyrido[4,3-d]pyrimidin-6(5H)-yl)ethanol] — 16-fold lower, 158 nM
- COc1cc(Nc2nc3c(c(Cc4ccccc4)n2)CN(C(C)=O)CC3)ccc1-n1cnc(C)c1 [Example 107, 1-(4-Benzyl-2-(3-methoxy-4-(4-methyl-1H-imidazol-1-yl)phenylamino)-7,8-dihydropyrido[4,3-d]pyrimidin-6(5H)-yl)ethanone] — 100-fold lower, 25.1 nM
- CCS(=O)(=O)N1CCc2nc(Nc3ccc(-c4cnco4)cc3)nc(N(CCO)c3ccccc3)c2C1 [Example 22, 2-((6-(Ethylsulfonyl)-2-(4-(oxazol-5-yl)phenylamino)-5,6,7,8-tetrahydropyrido[4,3-d]pyrimidin-4-yl)(phenyl)amino)ethanol] — 6.3-fold lower, 398 nM
- CC(=O)N1CCc2nc(Nc3ccc(-c4cnco4)cc3)nc(NC3CCCCC3)c2C1 [Example 26, 1-(4-(Cyclohexylamino)-2-(4-(oxazol-5-yl)phenylamino)-7,8-dihydropyrido[4,3-d]pyrimidin-6(5H)-yl)ethanone] — 20-fold lower, 126 nM
- Cc1nccn1-c1ccc(Nc2nc3c(c(N4c5ccccc5C[C@H]4CO)n2)CN(C)CC3)cc1 [Example 9, (S)-(1-(6-methyl-2-(4-(2-methyl-1H-imidazol-1-yl)phenylamino)-5,6,7,8-tetrahydropyrido[4,3-d]pyrimidin-4-yl)indolin-2-yl)methanol] — 1.6-fold lower, 1580 nM
- COc1cc(Nc2nc3c(c(Cc4ccccc4)n2)CNCC3)ccc1-n1cnc(C)c1 [Example 106, 4-Benzyl-N-(3-methoxy-4-(4-methyl-1H-imidazol-1-yl)phenyl)-5,6,7,8-tetrahydropyrido[4,3-d]pyrimidin-2-amine] — 40-fold lower, 63.1 nM
- CCC(=O)N1CCc2nc(Nc3ccc(-c4cnco4)cc3)nc(N(CCO)c3ccccc3)c2C1 [Example 15, 1-(4-((2-Hydroxyethyl)(phenyl)amino)-2-(4-(oxazol-5-yl)phenylamino)-7,8-dihydropyrido[4,3-d]pyrimidin-6(5H)-yl)propan-1-one] — 6.3-fold lower, 398 nM
- CC(=O)N1CCc2nc(Nc3ccc(-c4cnco4)cc3)nc(N3CCc4ccccc43)c2C1 [Example 90, 1-(4-(Indolin-1-yl)-2-(4-(oxazol-5-yl)phenylamino)-7,8-dihydropyrido[4,3-d]pyrimidin-6(5H)-yl)ethanone] — 4-fold lower, 631 nM
- Cc1nccn1-c1ccc(Nc2nc3c(c(N4c5ccccc5C[C@@H]4CO)n2)CN(C)CC3)cc1 [Example 13, (R)-(1-(6-Methyl-2-(4-(2-methyl-1H-imidazol-1-yl)phenylamino)-5,6,7,8-tetrahydropyrido[4,3-d]pyrimidin-4-yl)indolin-2-yl)methanol] — within 1.5-fold, 3160 nM
- Cc1nccn1-c1ccc(Nc2nc3c(c(Cc4ccccc4)n2)CN(CCO)CC3)cc1 [Example 41, 2-(4-Benzyl-2-(4-(2-methyl-1H-imidazol-1-yl)phenylamino)-7,8-dihydropyrido[4,3-d]pyrimidin-6(5H)-yl)ethanol] — 13-fold lower, 200 nM
- CC(=O)N1CCc2nc(Nc3ccc(-n4ccnc4C)cc3)nc(Cc3ccccc3F)c2C1 [Example 98, 1-(4-(2-Fluorobenzyl)-2-(4-(2-methyl-1H-imidazol-1-yl)phenylamino)-7,8-dihydropyrido[4,3-d]pyrimidin-6(5H)-yl)ethanone] — 3.2-fold lower, 794 nM
- Cc1nccn1-c1ccc(Nc2nc3c(c(NC[C@H]4CCCO4)n2)CN(C)CC3)cc1 [Example 74, (R)-6-Methyl-N2-(4-(2-methyl-1H-imidazol-1-yl)phenyl)-N4-((tetrahydrofuran-2-yl)methyl)-5,6,7,8-tetrahydropyrido[4,3-d]pyrimidine-2,4-diamine] — 2.5-fold lower, 1000 nM
- Cc1nccn1-c1ccc(Nc2nc3c(c(N(CCC#N)C4CC4)n2)CN(C)CC3)cc1 [Example 78, 3-(Cyclopropyl(6-methyl-2-(4-(2-methyl-1H-imidazol-1-yl)phenylamino)-5,6,7,8-tetrahydropyrido[4,3-d]pyrimidin-4-yl)amino)propanenitrile] — 2.5-fold lower, 1000 nM
- Cc1nccn1-c1ccc(N(C)c2nc3c(c(N4c5ccccc5C[C@H]4CO)n2)CN(C)CC3)cc1 [Example 72] — 4-fold lower, 631 nM
- Cc1nccn1-c1ccc(Nc2nc3c(c(CC4CCOCC4)n2)CSCC3)cc1 [Example 46, N-(4-(2-Methyl-1H-imidazol-1-yl)phenyl)-4-((tetrahydro-2H-pyran-4-yl)methyl)-7,8-dihydro-5H-thiopyrano[4,3-d]pyrimidin-2-amine] — 1.6-fold lower, 1580 nM
- COC(c1ccccc1)c1nc(Nc2ccc(-n3ccnc3C)cc2)nc2c1CS(=O)(=O)CC2 (centres unmarked) [Example 66, 4-[Methoxy(phenyl)methyl]-N-[4-(2-methyl-1H-imidazol-1-yl)phenyl]-7,8-dihydro-5H-thiopyrano[4,3-d]pyrimidin-2-amine 6,6-dioxide] — 2-fold lower, 1260 nM
